Assay results published in patent publication US20240384268A1, “Oligonucleotides” (Hudson Institute of Medical Research, priority 2021, published 2024).

Molecular target: T1, TLR8 (Homo sapiens, UniProt Q9NR97)
T1 sequence (Q9NR97 27-1041): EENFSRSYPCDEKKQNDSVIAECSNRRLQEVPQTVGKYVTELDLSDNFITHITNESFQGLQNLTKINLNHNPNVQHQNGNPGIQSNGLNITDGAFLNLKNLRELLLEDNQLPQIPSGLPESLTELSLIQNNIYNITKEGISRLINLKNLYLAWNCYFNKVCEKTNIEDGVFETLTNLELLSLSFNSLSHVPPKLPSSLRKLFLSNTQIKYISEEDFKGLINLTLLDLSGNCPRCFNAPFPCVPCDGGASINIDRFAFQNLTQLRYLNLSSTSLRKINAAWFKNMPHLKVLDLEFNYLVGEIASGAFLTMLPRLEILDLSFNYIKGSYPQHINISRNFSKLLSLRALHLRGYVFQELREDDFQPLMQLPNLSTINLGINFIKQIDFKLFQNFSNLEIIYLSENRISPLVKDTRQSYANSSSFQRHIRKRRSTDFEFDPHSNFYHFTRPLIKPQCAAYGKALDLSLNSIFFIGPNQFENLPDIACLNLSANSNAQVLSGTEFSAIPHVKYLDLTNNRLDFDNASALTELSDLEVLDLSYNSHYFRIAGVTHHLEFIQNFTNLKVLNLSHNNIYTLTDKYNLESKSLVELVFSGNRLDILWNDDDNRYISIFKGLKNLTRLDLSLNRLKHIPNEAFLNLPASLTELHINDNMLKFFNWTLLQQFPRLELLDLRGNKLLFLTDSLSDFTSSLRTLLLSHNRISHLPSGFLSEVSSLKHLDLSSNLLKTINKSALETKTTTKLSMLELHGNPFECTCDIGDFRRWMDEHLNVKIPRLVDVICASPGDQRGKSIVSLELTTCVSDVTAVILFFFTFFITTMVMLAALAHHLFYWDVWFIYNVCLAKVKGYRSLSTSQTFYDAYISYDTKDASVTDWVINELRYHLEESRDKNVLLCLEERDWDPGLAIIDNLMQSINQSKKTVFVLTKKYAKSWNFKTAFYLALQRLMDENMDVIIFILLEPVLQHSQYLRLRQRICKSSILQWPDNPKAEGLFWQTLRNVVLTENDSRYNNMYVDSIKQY
Assay: HEK-TLR8 NF-κB-luciferase reporter, R848 or Motolimod stimulation (potentiation or inhibition)
Type: cell-based
Design: expressed in transfected cells; host or cells: 293XLhTLR8 (HEK293)
Conditions: averaged NF-κB-Luciferase relative to R848 condition (fold increase); for TLR8 100 nM: MOE-modified ASO at 100 nM; for TLR8 500 nM: MOE-modified ASO at 500 nM

Sequence	TLR8 100 nM	TLR8 500 nM
ACCCACTTGGCAGACCATCA (antisense; 2'-MOE modified, pattern not given here) [CTNN2B-1575 MOE]	2.822	3.985
ATCCAACACTTCGTGGGGTC (antisense; 2'-MOE modified, pattern not given here) [HPRT-668 MOE]	1.437	1.519
GCGGAGGTCTTGGCTTCGTG (antisense; 2'-MOE modified, pattern not given here) [MB21D1-526 MOE]	1.598	2.226
TTGCACACTTCGTACCCAAA (antisense; 2'-MOE modified, pattern not given here) [CAMSAP1-4915 MOE]	1.555	1.972
ACAACCCCTTTCACCATCCC (antisense; 2'-MOE modified, pattern not given here) [MB21D1-689 MOE]	8.841	14.808
GGTGGTGGCCACCCATCTCA (antisense; 2'-MOE modified, pattern not given here) [CTNN2B-2479 MOE]	1.491	0.874
ATGTCCCGCCACTGGATGCT (antisense; 2'-MOE modified, pattern not given here) [EGFR-727 MOE]	2.029	1.708
TCAAAGGACTGAGGAAAGGG (antisense; 2'-MOE modified, pattern not given here) [CAMSAP1-6273 MOE]	3.896	3.406
TGTCCTTGCACGTGGCTTCG (antisense; 2'-MOE modified, pattern not given here) [EGFR-1014 MOE]	1.187	1.433
TGTCTTCATCGGCCCTGCCT (antisense; 2'-MOE modified, pattern not given here) [CAMSAP1-2112 MOE]	1.331	1.178
GTCTTGGCTTCGTGGAGCAG (antisense; 2'-MOE modified, pattern not given here) [MB21D1-520 MOE]	2.383	3.536
CTCTTGAAGCATCGTATCAC (antisense; 2'-MOE modified, pattern not given here) [CTNN2B-3648 MOE]	1.650	2.200
GGTGGTCCACAACCCCTTTC (antisense; 2'-MOE modified, pattern not given here) [MB21D1-697 MOE]	2.121	3.700
ATGTCCCCTGTTGACTGGTC (antisense; 2'-MOE modified, pattern not given here) [HPRT-489 MOE]	1.752	2.118
TTGGCTCGGCTTGCCTACTT (antisense; 2'-MOE modified, pattern not given here) [CAMSAP1-5594 MOE]	1.096	0.813
GCTTCAGGCGCTGCCTTGCC (antisense; 2'-MOE modified, pattern not given here) [CAMSAP1-2709 MOE]	0.985	0.620
